Laboratory results published in paper PMC12461331, “Screening of Medicines for Malaria Venture Open Boxes Identifies Potent SARS-CoV‑2 Papain-like Protease (PL^pro) Inhibitors” (ACS Omega, 2025).
pEC50: −log10 of the molar value. Converted amounts (≈) assume the structure as drawn. “And” between values parts separate entries of the source, which are not always exact repeats. Identical values can stand only once. Counter-ions that a name gives are not always drawn. Like-named read-outs stand apart in the source and are kept apart here.

Key:
[1] = tested on: HeLa-ACE2 cells; details: for Data Mode / S0 / Sinf / nHill: Hela-ACE2 CoV-2 Total Cell count; for S0 / Sinf / nHill: curve fit; for HeLa-ACE2 Total Cell Efficacy (Sinf, note + or -): infected HeLa-ACE2 total cell count
[2] = Mouse liver microsomal stability assay; details: CD1, mouse, liver microsomes, pH 7.4
[3] = in vitro; details: human, microsomes, pH 7.4
[4] = target: PL^pro (Severe acute respiratory syndrome coronavirus 2, UniProt P0DTD1); details: 20 μM compound, 5 μM enzyme, average of triplicates with SD
[5] = female, BALB/c, mouse, 1 h, 2 μM, pH 7.4
[6] = tested on: SARS-CoV-2; assay: microbe, parasite or virus in culture; details: for AC50: Severe acute respiratory syndrome coronavirus 2, HeLa-ACE2, read-out: Log AC50 (converted)
[7] = in vitro; details: PAMPA
[8] = Human liver microsomal stability assay; details: human, liver microsomes, pH 7.4
[9] = in vitro; details: CD1, mouse, microsomes, pH 7.4
[10] = in vitro; details: human, uninfected HeLa-ACE2 cells
[11] = physchem; details: pH 7.4
[12] = tested on: SARS-CoV-2; details: for CoV2 Efficacy (delta S0:Sinf): HeLa-ACE2; for Data Mode: Hela-ACE2 % Positive SARS-CoV-2; for S0 / Sinf / nHill: Hela-ACE2 % Positive SARS-CoV-2, curve fit; for SI (average CC50/average EC50): supplement summary
[13] = tested on: HeLa-ACE2 cells; assay: cells; details: Homo sapiens; for AC50: HeLa-ACE2, read-out: Log AC50 (converted)
[14] = tested on: uninfected HeLa-ACE2 cells; details: Hela-ACE2 Uninfected Cell Toxicity; for qAC50: relation in column qAC50 Mode, unit not given; for S0 / Sinf / nHill: curve fit
[15] = physchem; details: 25 °C, kinetic from dmso stock
[16] = Plasma stability; details: female, BALB/c, mouse, plasma, pH 7.4
[17] = Severe acute respiratory syndrome coronavirus 2, HeLa-ACE2, read-out: SARS-CoV-2 EC50, HeLa-ACE2 cells, average of triplicates
[18] = Severe acute respiratory syndrome coronavirus 2, HeLa-ACE2, read-out: qAC50, Hela-ACE2 % Positive SARS-CoV-2, relation in column qAC50 Mode, unit inferred
[19] = uninfected HeLa-ACE2 CC50, supplement summary
[20] = uninfected HeLa-ACE2 CC50, uninfected HeLa-ACE2 cells, average of triplicates
[21] = HeLa-ACE2, read-out: HeLa-ACE2 Total cells EC50
[22] = Severe acute respiratory syndrome coronavirus 2, HeLa-ACE2, read-out: CoV-2 EC50
[23] = Severe acute respiratory syndrome coronavirus 2, HeLa-ACE2, read-out: qAC50

C[C@@H](c1cccc2ccccc12)N1CCC(C(=O)NCc2ccncc2)CC1 (racemic) [Compound 10]
Data Mode [1]: inactive
half-life at 0.5 μM [2]: 25.3 min
microsomal CLint at 0.5 μM [3]: 75.6 µL/min/mg
ΔT m [4]: 4.65 °C and 4.6 ± 0.1 °C
plasma stability remaining 60 min [5]: 97.19%
AC50 [6]: > 9610 nM
pEC50 [6, 17]: < 5.02
pEC50 [6, 18]: < 5.02
Papp at 5 h, 10 μM [7]: 1.01 ×10⁻⁶ cm/s
half-life at 0.5 μM [8]: 36.7 min
microsomal CLint at 0.5 μM [9]: 110 µL/min/mg
CC50 at 24 h [10, 19]: > 39800 nM
CC50 at 24 h [10, 20]: > 39800 nM
chromatographic logD [11]: 3.32
CoV2 Efficacy (delta S0:Sinf) [12]: 103.533
Data Mode [12]: decreasing (weakly active)
S0 [12]: 3.533
Sinf [12]: -100
nHill [12]: 4
pEC50 [13, 21]: < 5.02
pEC50 ([13]; HeLa-ACE2, read-out: qAC50): < 5.02
Data Mode [14]: inactive
qAC50 [14]: > 3.984e-5
solubility kinetic at 24 h ([15]; pH 2, aqueous buffer): > 17.3 µg/mL
solubility kinetic at 24 h ([15]; pH 7.4, aqueous buffer): > 31 µg/mL

C[C@@H](c1cccc2ccccc12)N1CCC(C(=O)NCC2CCCCC2)CC1 (racemic) [Compound 11]
Data Mode [1]: inactive
half-life at 0.5 μM [2]: 7.84 min
microsomal CLint at 0.5 μM [3]: 209 µL/min/mg
ΔT m [4]: 0.90 ± 0.07 °C
plasma stability remaining 60 min [5]: 47.10%
pEC50 [6, 17]: < 5.02
pEC50 [6, 18]: < 5.02
Papp at 5 h, 10 μM [7]: 0.35 ×10⁻⁶ cm/s
half-life at 0.5 μM [8]: 13.2 min
microsomal CLint at 0.5 μM [9]: 354 µL/min/mg
CC50 at 24 h [10, 19]: > 39800 nM
CC50 at 24 h [10, 20]: > 39800 nM
chromatographic logD [11]: 4.8
Data Mode [12]: inactive
pEC50 [13, 21]: < 5.02
pEC50 ([13]; HeLa-ACE2, read-out: qAC50): < 5.02
Data Mode [14]: inactive
qAC50 [14]: > 3.984e-5
half-life at 2 μM [16]: 5.25 h
solubility kinetic at 24 h ([15]; pH 2, aqueous buffer): > 23.1 µg/mL
solubility kinetic at 24 h ([15]; pH 7.4, aqueous buffer): 6.15 µg/mL (≈ 16.2 µM)

Cc1ccc(CNC(=O)C2CCN([C@@H](C)c3cccc4ccccc34)CC2)cc1 (stereo in doubt) [Compound 5]
Data Mode [1]: inactive
half-life at 0.5 μM [2]: 9.48 min
microsomal CLint at 0.5 μM [3]: 152 µL/min/mg
ΔT m [4]: 5.57 °C and 5.57 ± 0.09 °C
plasma stability remaining 60 min [5]: 33.79%
AC50 [6]: > 9610 nM
pEC50 [6, 17]: < 5.02
pEC50 [6, 18]: < 5.02
Papp at 5 h, 10 μM [7]: 0.67 ×10⁻⁶ cm/s
half-life at 0.5 μM [8]: 18.2 min
microsomal CLint at 0.5 μM [9]: 292 µL/min/mg
CC50 at 24 h [10, 19]: > 39800 nM
CC50 at 24 h [10, 20]: > 39800 nM
chromatographic logD [11]: 4.55
CoV2 Efficacy (delta S0:Sinf) [12]: 105.451
Data Mode [12]: decreasing (weakly active)
S0 [12]: 5.451
Sinf [12]: -100
nHill [12]: 2.548
pEC50 [13, 21]: < 5.02
pEC50 ([13]; HeLa-ACE2, read-out: qAC50): < 5.02
Data Mode [14]: inactive
qAC50 [14]: > 3.984e-5
half-life at 2 μM [16]: 3.98 h
solubility kinetic at 24 h ([15]; pH 2, aqueous buffer): > 25 µg/mL
solubility kinetic at 24 h ([15]; pH 7.4, aqueous buffer): 8.62 µg/mL (≈ 22.3 µM)

COc1ccc(CNC(=O)[C@@H]2CCN([C@H](C)c3cccc4ccccc34)C2)cc1 (stereo in doubt) [Compound 18]
half-life at 0.5 μM [2]: 4.76 min
microsomal CLint at 0.5 μM [3]: 212 µL/min/mg
plasma stability remaining 60 min [5]: 56.69%
Papp at 5 h, 10 μM [7]: 0.56 ×10⁻⁶ cm/s
half-life at 0.5 μM [8]: 13.1 min
microsomal CLint at 0.5 μM [9]: 582 µL/min/mg
chromatographic logD [11]: 4.24
half-life at 2 μM [16]: 7.7 h
solubility kinetic at 24 h ([15]; pH 2, aqueous buffer): > 25.2 µg/mL
solubility kinetic at 24 h ([15]; pH 7.4, aqueous buffer): > 19.8 µg/mL

Cc1cccc(/C=N/Nc2cc(N3CCOCC3)nc(OCCc3ccccn3)n2)c1 [Apilimod, reference compound]
Data Mode [1]: inactive
pEC50 [6, 22]: 7.59
AC50 [6]: 25.6 nM
pEC50 [6, 23]: 7.59
AC50 at 24 h [10]: 5700 nM
CC50 at 24 h [10, 19]: 5700 nM
CoV2 Efficacy (delta S0:Sinf) [12]: 96.257
Data Mode [12]: decreasing
S0 [12]: 0.02088
Sinf [12]: -96.2358
nHill [12]: 1.796
SI (average CC50/average EC50) [12]: 222.534
pEC50 [13, 21]: < 5.62
pEC50 ([13]; HeLa-ACE2, read-out: qAC50): < 5.62
Data Mode [14]: decreasing
S0 [14]: -7.369
Sinf [14]: -100
nHill [14]: 1.671
qAC50 [14]: 5.705e-6

COc1ccc(CNC(=O)C2CCN(Cc3cccc4ccccc34)CC2)cc1 [Compound 1]
half-life at 0.5 μM [2]: 18.9 min
microsomal CLint at 0.5 μM [3]: 117 µL/min/mg
ΔT m [4]: 0.40 ± 0.08 °C
plasma stability remaining 60 min [5]: 43.36%
Papp at 5 h, 10 μM [7]: 1 ×10⁻⁶ cm/s
half-life at 0.5 μM [8]: 23.7 min
microsomal CLint at 0.5 μM [9]: 146 µL/min/mg
chromatographic logD [11]: 4.18
half-life at 2 μM [16]: 4.44 h
solubility kinetic at 24 h ([15]; pH 2, aqueous buffer): > 24.9 µg/mL
solubility kinetic at 24 h ([15]; pH 7.4, aqueous buffer): > 21.8 µg/mL

COc1ccc(CC(=O)NC2CCN([C@@H](C)c3cccc4ccccc34)CC2)cc1 [Compound 7]
half-life at 0.5 μM [2]: 7.33 min
microsomal CLint at 0.5 μM [3]: 205 µL/min/mg
plasma stability remaining 60 min [5]: 95.21%
Papp at 5 h, 10 μM [7]: 1.03 ×10⁻⁶ cm/s
half-life at 0.5 μM [8]: 13.5 min
microsomal CLint at 0.5 μM [9]: 378 µL/min/mg
chromatographic logD [11]: 4.27
half-life at 2 μM [16]: 116 h
solubility kinetic at 24 h ([15]; pH 2, aqueous buffer): > 24.8 µg/mL
solubility kinetic at 24 h ([15]; pH 7.4, aqueous buffer): > 15.9 µg/mL

COc1ccc(CNC(=O)[C@@H]2CCN([C@@H](C)c3cccc4ccccc34)C2)cc1 [Compound 15]
half-life at 0.5 μM [2]: 3.74 min
microsomal CLint at 0.5 μM [3]: 173 µL/min/mg
ΔT m [4]: 0.40 ± 0.06 °C
plasma stability remaining 60 min [5]: 79.94%
Papp at 5 h, 10 μM [7]: 0.46 ×10⁻⁶ cm/s
half-life at 0.5 μM [8]: 16.1 min
microsomal CLint at 0.5 μM [9]: 742 µL/min/mg
chromatographic logD [11]: 4.24
half-life at 2 μM [16]: 19.3 h
solubility kinetic at 24 h ([15]; pH 2, aqueous buffer): > 23.9 µg/mL
solubility kinetic at 24 h ([15]; pH 7.4, aqueous buffer): > 19.1 µg/mL

COc1ccc(CNC(=O)[C@H]2CCN([C@H](C)c3cccc4ccccc34)C2)cc1 [Compound 16]
half-life at 0.5 μM [2]: 10.4 min
microsomal CLint at 0.5 μM [3]: 254 µL/min/mg
ΔT m [4]: 0.40 ± 0.08 °C
plasma stability remaining 60 min [5]: 88.71%
Papp at 5 h, 10 μM [7]: 0.53 ×10⁻⁶ cm/s
half-life at 0.5 μM [8]: 10.9 min
microsomal CLint at 0.5 μM [9]: 267 µL/min/mg
chromatographic logD [11]: 4.24
half-life at 2 μM [16]: 28.9 h
solubility kinetic at 24 h ([15]; pH 2, aqueous buffer): > 24.6 µg/mL
solubility kinetic at 24 h ([15]; pH 7.4, aqueous buffer): > 19.5 µg/mL

COc1ccc(C[C@H](N)C(=O)N[C@H]2[C@@H](O)[C@H](n3cnc4c(N(C)C)ncnc43)O[C@@H]2CO)cc1 [Puromycin dihydrochloride, reference compound]
Data Mode [1]: decreasing
S0 [1]: -17.6223
Sinf [1]: -98.1852
nHill [1]: 4
HeLa-ACE2 Total Cell Efficacy (Sinf, note + or -) [1]: 4.000
pEC50 [6, 22]: 6.42
AC50 [6]: 381 nM
pEC50 [6, 23]: 6.42
AC50 at 24 h [10]: 578 nM
CC50 at 24 h [10, 19]: 578 nM
CoV2 Efficacy (delta S0:Sinf) [12]: 109.643
Data Mode [12]: decreasing
S0 [12]: 10.0167
Sinf [12]: -99.6259
nHill [12]: 4
SI (average CC50/average EC50) [12]: 1.518
pEC50 [13, 21]: 5.94
AC50 [13]: 1140 nM
pEC50 ([13]; HeLa-ACE2, read-out: qAC50): 5.94
Data Mode [14]: decreasing
S0 [14]: -1.04
Sinf [14]: -99.1112
nHill [14]: 3.073
qAC50 [14]: 5.784e-7

CCC(CC)COC(=O)[C@H](C)N[P@](=O)(OC[C@H]1O[C@@](C#N)(c2ccc3c(N)ncnn23)[C@H](O)[C@@H]1O)Oc1ccccc1 [Remdesivir, reference compound]
Data Mode [1]: increasing
S0 [1]: -15.3429
Sinf [1]: 34.6571
nHill [1]: 2.142
HeLa-ACE2 Total Cell Efficacy (Sinf, note + or -) [1]: 2.142
pEC50 [6, 22]: 7.02
AC50 [6]: 95.2 nM
pEC50 [6, 23]: 7.02
AC50 at 24 h [10]: 2150 nM
CC50 at 24 h [10, 19]: 2150 nM
CoV2 Efficacy (delta S0:Sinf) [12]: 101.769
Data Mode [12]: decreasing
S0 [12]: 1.9121
Sinf [12]: -99.8572
nHill [12]: 1.898
SI (average CC50/average EC50) [12]: 22.589
pEC50 [13, 21]: 6.99
AC50 [13]: 102 nM
pEC50 ([13]; HeLa-ACE2, read-out: qAC50): 6.99
Data Mode [14]: decreasing
S0 [14]: 13.7985
Sinf [14]: -53.8717
nHill [14]: 1.539
qAC50 [14]: 2.1501e-6
